Experimental data reported in patent publication US9345742B2, “Aminostatin derivatives for the treatment of arthrosis” (MERCK PATENT GMBH, priority 2011, dated 2016).

Test system: bovine explants
Test: Cartilage explant assay (pH-induced cartilage degradation, GAG liberation)
Format: cell-based
Settings: Bos taurus, 72 h, pH 5.5, 3 days
Excerpt: In order to investigate the effect of potential cathepsin D inhibitors on cartilage degradation, a pH-induced model based on bovine explants is used. The pH of the medium in which the explants are cultivated is matched here to the pathophysiological pH of an arthrotic knee. This pH is pH 5.5. In this ex vivo model, potential cathepsin D inhibitors are subsequently investigated for their action with respect to stopping of the cartilage degradation process. If the cartilage is destroyed, glycosaminoglycans (GAGs) are released into the cell culture supernatant. The amount of GAGs liberated can be determined quantitatively with the aid of DMMB (dimethylmethylene blue hydrochloride). If sulfated GAGs are detected using dimethylmethylene blue hydrochloride, the decrease in the absorption at 633 nm is utilised. […] In order to determine the concentration, a calibration line is also recorded using chondroitin sulfate.
The bovine explants are firstly prepared. The induction of the cartilage degradation is carried out in 96-multiwell plates. One explant is cultivated per well. In each case, 200 μl of DMEM (incubation medium pH 5.5) without FBS+30 μg/ml of ascorbic acid are added. Thus negative control, explants (n=4) are incubated at pH 7.4 (without FBS). This control is not included in the calculation of the data, but instead ensures that the pH change has the desired effect on the liberation of GAG. At this point, the substances to be tested are added. No preincubation of the explants is carried out. The explants are cultivated with the corresponding substances for 3 days in the incubator at 37° C. and 7.5% CO2.
In order to investigate the effect of cathepsin D inhibitors on the liberation of GAG (glycosaminoglycan), the substances are employed in the desired concentration and cultivated for 3 days. The compounds to be tested are tested in a first experiment in a concentration of 1 μM and 1% of DMSO. Substances which have an effect of >50% on the liberation of GAG (this corresponds to <50% of the control in the Assay Explorer) are tested in the next experiment at 100 nM and 1% of DMSO. Substances which have an effect of >50% on the liberation of GAG under these conditions (this corresponds to <50% of the control in the Assay Explorer) are tested in a concentration/effect relationship. The compounds here are investigated in the following concentrations: 30 μM, 10 μM, 3 μM, 1 μM, […], 0.1 μM, 0.03 μM, 0.01 μM.
The positive control used is pepstatin A with a concentration of 0.01 μM. The assay window is defined by the control (pH 5.5), defined as 0% effect, and the control pH 5.5+0.01 μM pepstatin A, defined as 100% effect. After incubation for 3 days, the cell culture supernatants are collected and stored at −20° C. or measured directly. The amount of liberated GAG is measured photometrically.
The effect (1 value) of the respective substance in % based on the positive control (pH 5.5+0.01 μM pepstatin A) and the negative control (pH 5.5) is reported for concentrations of 1 μM and 100 nM. The value represents the average of 4 replicants. In the determination of a concentration/effect relationship, an IC50 value is reported to the database (Assay Explorer).
The cell culture supernatants (200 μl) are either measured directly or stored at −20° C. In order to ensure an accurate determination of the concentration (μg/ml of GAG in the supernatant) of GAG, the measurement values must be located in the linear region of the standard curve. In order to ensure this, various dilutions are routinely introduced (1/5, 1/10, 1/20, 1/40). The dilutions are prepared with medium and introduced automatically (Hamilton) into a 384-well plate (15 μl). 60 μl of DMMB solution are likewise added automatically (or using a multichannel pipette). A rapid colour reaction occurs, which is subsequently measured at 633 nm using a plate reader (for example Envision).

**Q.** With CCC(CC)NC(=O)[C@@H](NC(=O)C[C@H](N)[C@H](Cc1ccccc1)NC(=O)[C@@H](NC(=O)[C@H](CC(C)C)NC(=O)CC(C)C)C(C)C)[C@@H](C)CC [Compound 39, N-[(1S,2S)-1-(1-Ethylpropylcarbamoyl)-2-methylbutyl]-(S)-3-(S)-amino-4-{(S)-3-methyl-2-[(S)-4-methyl-2-(3-methylbutyryl-amino)pentanoylamino]butyrylamino}-5-phenylpentanamide] as the molecule, how does the IC50 read?
**A.** 0.233 nM
